The target of test [1] is Carbonic anhydrase 1 (Homo sapiens, UniProt P00915). As to the kind of experiment: Inhibition of recombinant human carbonic anhydrase 1 incubated for 15 mins prior to testing by phenol red based stopped-flow CO2 hydration assay.
In test [2] the target is T1, Vascular endothelial growth factor receptor 2 (Homo sapiens, UniProt P35968).
The target in test [3] is Carbonic anhydrase 2 (Homo sapiens, UniProt P00918). Nature of the test: Inhibition of recombinant human carbonic anhydrase 2 incubated for 15 mins prior to testing by phenol red based stopped-flow CO2 hydration assay.
Test [4] has as its target T1, Vascular endothelial growth factor receptor 2. The source holds these as a separate data set.
Description: Inhibition of human VEGFR-2 by ELISA
The subject of test [5] is HepG2. Nature of the test: cells. As to conditions: Homo sapiens.
Description: Cytotoxicity against human HepG2 cells by MTT assay

Some results are limits rather than exact numbers.

What is called Ki is a dissociation constant, usually derived from enzyme kinetics or from competition with a known ligand. In general, IC50 refers to the concentration needed to halve the response being measured. Read a high IC50 as lower potency.

T1 sequence (P35968 whole entry): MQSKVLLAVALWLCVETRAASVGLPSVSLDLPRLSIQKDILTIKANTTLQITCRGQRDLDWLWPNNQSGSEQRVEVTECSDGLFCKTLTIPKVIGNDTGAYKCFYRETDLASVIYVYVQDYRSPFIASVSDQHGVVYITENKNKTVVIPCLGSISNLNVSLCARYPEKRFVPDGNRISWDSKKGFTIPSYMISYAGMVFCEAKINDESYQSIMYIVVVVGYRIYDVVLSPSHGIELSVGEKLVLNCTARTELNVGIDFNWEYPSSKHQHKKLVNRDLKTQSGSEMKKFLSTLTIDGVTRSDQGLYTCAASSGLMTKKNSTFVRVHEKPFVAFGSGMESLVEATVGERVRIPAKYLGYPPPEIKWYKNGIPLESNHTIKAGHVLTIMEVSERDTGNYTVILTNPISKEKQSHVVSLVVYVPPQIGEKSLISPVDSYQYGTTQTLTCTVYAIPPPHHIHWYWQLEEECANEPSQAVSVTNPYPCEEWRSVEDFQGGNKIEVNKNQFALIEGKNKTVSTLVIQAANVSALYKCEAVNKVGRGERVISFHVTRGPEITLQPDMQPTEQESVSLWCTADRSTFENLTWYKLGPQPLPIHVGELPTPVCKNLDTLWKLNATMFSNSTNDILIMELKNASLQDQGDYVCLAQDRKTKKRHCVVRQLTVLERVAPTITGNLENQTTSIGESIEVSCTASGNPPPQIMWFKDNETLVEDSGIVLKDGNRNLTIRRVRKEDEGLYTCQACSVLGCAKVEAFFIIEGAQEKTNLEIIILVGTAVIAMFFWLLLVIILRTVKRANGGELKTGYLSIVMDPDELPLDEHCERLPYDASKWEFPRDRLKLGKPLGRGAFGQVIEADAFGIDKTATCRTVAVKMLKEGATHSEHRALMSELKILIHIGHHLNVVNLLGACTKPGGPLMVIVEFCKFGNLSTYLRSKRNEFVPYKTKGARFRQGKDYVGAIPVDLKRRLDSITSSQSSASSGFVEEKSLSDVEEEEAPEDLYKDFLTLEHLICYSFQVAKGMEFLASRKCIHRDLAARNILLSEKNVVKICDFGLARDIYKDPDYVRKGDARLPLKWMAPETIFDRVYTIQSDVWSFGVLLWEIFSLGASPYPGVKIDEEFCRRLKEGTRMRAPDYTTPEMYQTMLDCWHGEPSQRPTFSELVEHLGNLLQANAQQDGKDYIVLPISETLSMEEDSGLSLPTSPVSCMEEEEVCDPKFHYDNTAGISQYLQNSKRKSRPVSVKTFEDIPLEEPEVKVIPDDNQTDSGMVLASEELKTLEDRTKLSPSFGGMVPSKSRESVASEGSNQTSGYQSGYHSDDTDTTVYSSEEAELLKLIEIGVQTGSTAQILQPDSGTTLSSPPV
Chain of Carbonic anhydrase 1 (P00915 whole entry): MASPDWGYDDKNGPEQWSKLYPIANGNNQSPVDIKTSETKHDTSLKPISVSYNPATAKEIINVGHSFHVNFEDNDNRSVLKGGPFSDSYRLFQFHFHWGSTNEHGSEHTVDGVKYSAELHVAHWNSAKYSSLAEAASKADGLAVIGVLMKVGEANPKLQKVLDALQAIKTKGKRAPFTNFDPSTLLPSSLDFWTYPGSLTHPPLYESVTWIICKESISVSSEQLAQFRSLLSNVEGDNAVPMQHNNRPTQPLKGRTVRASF

Consider `NS(=O)(=O)c1ccccc1NC(=O)Nc1nc(-c2ccccc2)n(-c2cccc(Cl)c2)n1`, for which the Ki in test [1] is above 10000 nM.

As to `NS(=O)(=O)c1ccccc1NC(=O)Nc1nc(-c2ccccc2)n(-c2ccc(Cl)cc2)n1`, in test [2], half-maximal inhibition (IC50) required 271 nM. Moreover, the Ki in test [3] was 241 nM; in test [1], above 10000 nM.

Regarding `Cc1ccc(NC(=O)Nc2nc(-c3ccccc3)n(-c3ccc(F)cc3)n2)cc1S(N)(=O)=O`, the Ki is 170 nM in test [3] and above 10000 nM in test [1].

`COc1cccc(-n2nc(NC(=O)Nc3ccc(S(N)(=O)=O)cc3)nc2-c2ccccc2)c1`: in test [3], the Ki turned out to be 13.6 nM.

Consider `COc1ccc(-n2nc(NC(=O)NCCc3ccc(S(N)(=O)=O)cc3)nc2-c2ccccc2)cc1OC`, for which the Ki in test [3] came out at 16.4 nM; in test [1] it was 153 nM.

In turn, `Cc1ccc(NC(=O)Nc2nc(-c3ccccc3)n(-c3cccc(Cl)c3)n2)cc1S(N)(=O)=O` showed an IC50 in test [2] of 96.2 nM. Moreover, the Ki is 91.4 nM in test [3] and above 10000 nM in test [1].

In the case of `COc1cccc(-n2nc(NC(=O)Nc3ccccc3S(N)(=O)=O)nc2-c2ccccc2)c1`, the Ki in test [3] is 158 nM; in test [1], above 10000 nM.

In the case of `COc1cccc(-n2nc(NC(=O)Nc3cccc(S(N)(=O)=O)c3)nc2-c2ccccc2)c1`, the results for the Ki in test [3] and in test [1] were 91.5 nM and 9430 nM, respectively.

As to `NS(=O)(=O)c1ccc(CCNC(=O)Nc2nc(-c3ccccc3)n(-c3ccc(F)cc3)n2)cc1`, the values for the Ki in test [3] and in test [1] were 3.4 nM and 39.8 nM, respectively.

On to `NS(=O)(=O)c1cccc(NC(=O)Nc2nc(-c3ccccc3)n(-c3cccc(Cl)c3)n2)c1`, for which the Ki was 101 nM in test [3] and 5820 nM in test [1].

Regarding `COc1ccc(-n2nc(NC(=O)Nc3cccc(S(N)(=O)=O)c3)nc2-c2ccccc2)cc1OC`, the Ki was 285 nM in test [3] and above 10000 nM in test [1].

With `NS(=O)(=O)c1ccccc1NC(=O)Nc1nc(-c2ccccc2)n(-c2ccc(F)cc2)n1`, the Ki in test [3] was 384 nM; in test [1], above 10000 nM.

Consider `COc1cc(-c2nc(C(=O)Nc3ccccc3)nn2-c2ccc(F)c(Cl)c2)cc(OC)c1OC`, for which the IC50 was found to be 19.8 nM in test [4] and 240 nM in test [5].

As to `COc1ccc(-n2nc(NC(=O)Nc3ccc(C)c(S(N)(=O)=O)c3)nc2-c2ccccc2)cc1`, the midpoint of inhibition in test [2], the IC50, lay at 717 nM. In test [3], the Ki was 72.4 nM.

`Cc1ccc(NC(=O)Nc2nc(-c3ccccc3)n(-c3ccc(Cl)cc3)n2)cc1S(N)(=O)=O`: in test [2], the IC50 is 541 nM. The Ki is 127 nM in test [3] and above 10000 nM in test [1].

Turning to `NS(=O)(=O)c1cccc(NC(=O)Nc2nc(-c3ccccc3)n(-c3ccc(Cl)cc3)n2)c1`, the Ki in test [1] came to 8260 nM.

On to `COc1ccc(-n2nc(NC(=O)Nc3ccc(S(N)(=O)=O)cc3)nc2-c2ccccc2)cc1`, for which the Ki stood at 29.4 nM in test [3] and 3870 nM in test [1].

As for `COc1ccc(-n2nc(NC(=O)Nc3ccc(C)c(S(N)(=O)=O)c3)nc2-c2ccccc2)cc1OC`, the Ki in test [3] worked out at 547 nM.

`COc1cccc(-n2nc(NC(=O)Nc3ccc(C)c(S(N)(=O)=O)c3)nc2-c2ccccc2)c1`: the Ki in test [3] was 230 nM; in test [1], above 10000 nM.

The molecule `COc1ccc(-n2nc(NC(=O)Nc3cccc(S(N)(=O)=O)c3)nc2-c2ccccc2)cc1` had an IC50 in test [2] of 183 nM. Moreover, the Ki came out at 56 nM in test [3] and 4190 nM in test [1].

As for `COc1ccc(-n2nc(NC(=O)Nc3ccccc3S(N)(=O)=O)nc2-c2ccccc2)cc1OC`, the values for the Ki in test [3] and in test [1] were 112 nM and above 10000 nM, respectively.

`NS(=O)(=O)c1ccc(NC(=O)Nc2nc(-c3ccccc3)n(-c3ccc(Cl)cc3)n2)cc1`: half-maximal inhibition in test [2] (IC50) was put at 318 nM. Besides, the Ki in test [3] was found to be 84.6 nM.

`NS(=O)(=O)c1ccc(CCNC(=O)Nc2nc(-c3ccccc3)n(-c3ccc(Cl)cc3)n2)cc1`: the inhibition constant Ki in test [3] stood at 41.7 nM.

As for `COc1cccc(-n2nc(NC(=O)NCCc3ccc(S(N)(=O)=O)cc3)nc2-c2ccccc2)c1`, the Ki is 35.8 nM in test [3] and 104 nM in test [1].

With `NS(=O)(=O)c1ccc(CCNC(=O)Nc2nc(-c3ccccc3)n(-c3cccc(Cl)c3)n2)cc1`, the Ki in test [3] amounted to 20.1 nM; in test [1] it was 61.8 nM.

Turning to `COc1ccc(-n2nc(NC(=O)NCCc3ccc(S(N)(=O)=O)cc3)nc2-c2ccccc2)cc1`, in test [1], the Ki turned out to be 82.7 nM.

In test [2], `NS(=O)(=O)c1ccc(NC(=O)Nc2nc(-c3ccccc3)n(-c3cccc(Cl)c3)n2)cc1` yielded an IC50 above 1000 nM. The Ki in test [1] was found to be 2690 nM.

Take `COc1ccc(-n2nc(NC(=O)Nc3ccccc3S(N)(=O)=O)nc2-c2ccccc2)cc1`: the figures for the Ki in test [3] and in test [1] were 158 nM and above 10000 nM, respectively.

As to `NS(=O)(=O)c1ccc(NC(=O)Nc2nc(-c3ccccc3)n(-c3ccc(F)cc3)n2)cc1`, the Ki in test [3] worked out at 25.2 nM; in test [1], 2250 nM.

On to `COc1ccc(-n2nc(NC(=O)Nc3ccc(S(N)(=O)=O)cc3)nc2-c2ccccc2)cc1OC`, for which the Ki in test [3] worked out at 16.9 nM.

In the case of `NS(=O)(=O)c1cccc(NC(=O)Nc2nc(-c3ccccc3)n(-c3ccc(F)cc3)n2)c1`, the results for the Ki in test [3] and in test [1] were 99 nM and 4900 nM, respectively.

Values taken from ChEMBL document CHEMBL5346980 (J Med Chem, 2023).
